Data set [1] can be described thus: Tmax in Sprague-Dawley rat at 10 mg/kg, po measured up to 24 hrs by LC-MS/MS analysis. The class given is ADME, organism-based. As to conditions: in vivo.
Data set [2] is described as follows: Cmax in Sprague-Dawley rat at 10 mg/kg, po measured up to 24 hrs by LC-MS/MS analysis. The class given is ADME, organism-based. Also noted: route oral, dose 10 mg/kg, time <=24. As to conditions: in vivo.
The nature of data set [3]: Terminal half life in Sprague-Dawley rat at 10 mg/kg, po measured up to 24 hrs by LC-MS/MS analysis. It counts as ADME, organism-based. As to conditions: in vivo, read-out: beta t1/2.
Data set [4] is described as follows: AUClast in Sprague-Dawley rat at 10 mg/kg, po measured up to 24 hrs by LC-MS/MS analysis. The following applies: in vivo. It counts as ADME, organism-based. More on the design: route oral, dose 10 mg/kg, time <=24.
Data set [5] in a line: Oral bioavailability in Sprague-Dawley rat at 10 mg/kg measured up to 24 hrs by LC-MS/MS analysis. It counts as ADME, organism-based. The following applies: in vivo.
Data set [6] can be described thus: Clearance in Sprague-Dawley rat at 10 mg/kg, iv measured up to 24 hrs by LC-MS/MS analysis. The following applies: in vivo. It counts as ADME, organism-based.
Data set [7] is described as follows: Terminal half life in Sprague-Dawley rat at 10 mg/kg, iv measured up to 24 hrs by LC-MS/MS analysis. The class given is ADME, organism-based. The following applies: in vivo, read-out: beta t1/2.
Data set [8] is described as follows: AUClast in Sprague-Dawley rat at 10 mg/kg, iv measured up to 24 hrs by LC-MS/MS analysis. It counts as ADME, organism-based. The following applies: in vivo. More on the design: route intravenous, dose 10 mg/kg, time <=24.
In data set [9] the target is Tyrosine-protein kinase Yes (Homo sapiens) (UniProt P07947). In words: Inhibition of human YES1 at 10 uM using myelin basic protein as substrate incubated for 40 mins in presence of [gamma33P]ATP by scintillation counting method relative to control.
Sequence of Tyrosine-protein kinase Yes (Homo sapiens) (P07947 2-543 limits assumed): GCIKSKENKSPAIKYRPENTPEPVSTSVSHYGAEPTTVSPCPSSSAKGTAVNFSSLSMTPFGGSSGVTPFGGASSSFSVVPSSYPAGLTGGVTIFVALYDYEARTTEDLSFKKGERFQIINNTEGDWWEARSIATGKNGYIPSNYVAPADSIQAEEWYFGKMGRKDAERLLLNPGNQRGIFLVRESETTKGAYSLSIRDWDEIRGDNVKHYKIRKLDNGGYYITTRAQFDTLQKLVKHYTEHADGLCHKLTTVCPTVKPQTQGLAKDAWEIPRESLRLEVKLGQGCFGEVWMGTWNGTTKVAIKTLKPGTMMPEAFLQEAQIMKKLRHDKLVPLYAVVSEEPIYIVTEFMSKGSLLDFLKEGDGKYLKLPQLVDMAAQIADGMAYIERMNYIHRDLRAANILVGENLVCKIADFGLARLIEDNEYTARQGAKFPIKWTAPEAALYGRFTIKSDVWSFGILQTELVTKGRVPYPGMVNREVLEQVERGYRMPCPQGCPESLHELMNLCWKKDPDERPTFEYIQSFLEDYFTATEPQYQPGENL
The target of data set [10] is Tyrosine-protein kinase Lyn (Homo sapiens) (UniProt P07948). Description: Inhibition of human LYN at 10 uM using myelin basic protein as substrate incubated for 40 mins in presence of [gamma33P]ATP by scintillation counting method relative to control.
Sequence of Tyrosine-protein kinase Lyn (Homo sapiens) (P07948 2-512 limits assumed): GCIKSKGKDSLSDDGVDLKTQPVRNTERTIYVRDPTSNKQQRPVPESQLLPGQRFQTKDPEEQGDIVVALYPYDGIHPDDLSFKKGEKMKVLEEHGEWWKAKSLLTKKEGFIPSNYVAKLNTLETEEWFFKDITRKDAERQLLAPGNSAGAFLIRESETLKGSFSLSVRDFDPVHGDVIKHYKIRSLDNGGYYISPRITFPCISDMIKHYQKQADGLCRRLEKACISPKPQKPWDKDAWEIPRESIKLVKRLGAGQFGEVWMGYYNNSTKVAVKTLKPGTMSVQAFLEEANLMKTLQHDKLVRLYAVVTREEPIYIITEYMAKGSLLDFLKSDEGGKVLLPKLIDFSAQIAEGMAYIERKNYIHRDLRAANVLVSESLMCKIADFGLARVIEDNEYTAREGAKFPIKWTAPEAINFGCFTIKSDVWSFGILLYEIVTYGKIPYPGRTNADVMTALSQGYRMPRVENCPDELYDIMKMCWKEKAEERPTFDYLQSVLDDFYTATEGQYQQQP
Data set [11] has as its target Macrophage colony-stimulating factor 1 receptor (Homo sapiens) (UniProt P07333). In words: Inhibition of human FMS at 10 uM using myelin basic protein as substrate incubated for 40 mins in presence of [gamma33P]ATP by scintillation counting method relative to control.
For a further data set, the system named is A498. In words: Growth inhibition of human A498 cells incubated for 48 hrs by sulforhodamine B assay. The class given is functional.
In data set [12] the test system is HL-60(TB). In words: Growth inhibition of human HL-60(TB) cells assessed as growth percentage at 0.01 uM incubated for 48 hrs by sulforhodamine B assay relative to control. The class given is functional. As to conditions: read-out: Activity. On the technique in general: Sulforhodamine B stains cellular protein and so reports cell mass.
The subject of data set [13] is HL-60(TB). In words: Growth inhibition of human HL-60(TB) cells assessed as growth percentage at 0.1 uM incubated for 48 hrs by sulforhodamine B assay relative to control. The class given is functional. As to conditions: read-out: Activity.
Data set [14] deals with HL-60(TB). In words: Growth inhibition of human HL-60(TB) cells assessed as growth percentage at 1 uM incubated for 48 hrs by sulforhodamine B assay relative to control. The class given is functional. As to conditions: read-out: Activity.
The subject of data set [15] is HL-60(TB). In words: Growth inhibition of human HL-60(TB) cells assessed as growth percentage at 100 uM incubated for 48 hrs by sulforhodamine B assay relative to control. It counts as functional. As to conditions: read-out: Activity.
Data set [16] deals with ACHN. Description: Growth inhibition of human ACHN cells incubated for 48 hrs by sulforhodamine B assay. The class given is functional.
Data set [17] concerns ACHN. Description: Growth inhibition of human ACHN cells assessed as growth percentage at 100 uM incubated for 48 hrs by sulforhodamine B assay relative to control. It counts as functional. As to conditions: read-out: Activity.
The test system of data set [18] is ACHN. In words: Growth inhibition of human ACHN cells assessed as growth percentage at 1 uM incubated for 48 hrs by sulforhodamine B assay relative to control. It counts as functional. The following applies: read-out: Activity.
For data set [19], the system named is ACHN. Description: Growth inhibition of human ACHN cells assessed as growth percentage at 0.01 uM incubated for 48 hrs by sulforhodamine B assay relative to control. It counts as functional. As to conditions: read-out: Activity.
The subject of data set [20] is SK-MEL-28. Description: Growth inhibition of human SK-MEL-28 cells assessed as growth percentage at 1 uM incubated for 48 hrs by sulforhodamine B assay relative to control. It counts as functional. As to conditions: read-out: Activity.
Data set [21] concerns SK-MEL-28. In words: Growth inhibition of human SK-MEL-28 cells assessed as growth percentage at 0.1 uM incubated for 48 hrs by sulforhodamine B assay relative to control. It counts as functional. The following applies: read-out: Activity.
Data set [22] concerns SK-MEL-28. In words: Growth inhibition of human SK-MEL-28 cells assessed as growth percentage at 0.01 uM incubated for 48 hrs by sulforhodamine B assay relative to control. It counts as functional. The following applies: read-out: Activity.
Data set [23] deals with SK-MEL-2. Description: Growth inhibition of human SK-MEL-2 cells assessed as growth percentage at 1 uM incubated for 48 hrs by sulforhodamine B assay relative to control. It counts as functional. The following applies: read-out: Activity.
In data set [24] the test system is SK-MEL-2. Description: Growth inhibition of human SK-MEL-2 cells assessed as growth percentage at 0.1 uM incubated for 48 hrs by sulforhodamine B assay relative to control. As to conditions: read-out: Activity. It counts as functional.
Data set [25] concerns SK-MEL-2. Description: Growth inhibition of human SK-MEL-2 cells assessed as growth percentage at 0.01 uM incubated for 48 hrs by sulforhodamine B assay relative to control. The following applies: read-out: Activity. The class given is functional.
Data set [26] concerns OVCAR-5. In words: Growth inhibition of human OVCAR-5 cells assessed as growth percentage at 100 uM incubated for 48 hrs by sulforhodamine B assay relative to control. It counts as functional. The following applies: read-out: Activity.
For data set [27], the system named is SF-539. Description: Growth inhibition of human SF-539 cells assessed as growth percentage at 100 uM incubated for 48 hrs by sulforhodamine B assay relative to control. It counts as functional. The following applies: read-out: Activity.
Data set [28] has as its system OVCAR-5. Description: Growth inhibition of human OVCAR-5 cells assessed as growth percentage at 1 uM incubated for 48 hrs by sulforhodamine B assay relative to control. It counts as functional. As to conditions: read-out: Activity.
Data set [29] deals with SF-539. In words: Growth inhibition of human SF-539 cells assessed as growth percentage at 1 uM incubated for 48 hrs by sulforhodamine B assay relative to control. The class given is functional. The following applies: read-out: Activity.
Data set [30] concerns OVCAR-5. Description: Growth inhibition of human OVCAR-5 cells assessed as growth percentage at 0.1 uM incubated for 48 hrs by sulforhodamine B assay relative to control. The class given is functional. The following applies: read-out: Activity.
The test system of data set [31] is SF-539. In words: Growth inhibition of human SF-539 cells assessed as growth percentage at 0.1 uM incubated for 48 hrs by sulforhodamine B assay relative to control. The class given is functional. As to conditions: read-out: Activity.
For data set [32], the system named is OVCAR-5. Description: Growth inhibition of human OVCAR-5 cells assessed as growth percentage at 0.01 uM incubated for 48 hrs by sulforhodamine B assay relative to control. It counts as functional. As to conditions: read-out: Activity.

Sequence of Macrophage colony-stimulating factor 1 receptor (Homo sapiens) (P07333 whole entry): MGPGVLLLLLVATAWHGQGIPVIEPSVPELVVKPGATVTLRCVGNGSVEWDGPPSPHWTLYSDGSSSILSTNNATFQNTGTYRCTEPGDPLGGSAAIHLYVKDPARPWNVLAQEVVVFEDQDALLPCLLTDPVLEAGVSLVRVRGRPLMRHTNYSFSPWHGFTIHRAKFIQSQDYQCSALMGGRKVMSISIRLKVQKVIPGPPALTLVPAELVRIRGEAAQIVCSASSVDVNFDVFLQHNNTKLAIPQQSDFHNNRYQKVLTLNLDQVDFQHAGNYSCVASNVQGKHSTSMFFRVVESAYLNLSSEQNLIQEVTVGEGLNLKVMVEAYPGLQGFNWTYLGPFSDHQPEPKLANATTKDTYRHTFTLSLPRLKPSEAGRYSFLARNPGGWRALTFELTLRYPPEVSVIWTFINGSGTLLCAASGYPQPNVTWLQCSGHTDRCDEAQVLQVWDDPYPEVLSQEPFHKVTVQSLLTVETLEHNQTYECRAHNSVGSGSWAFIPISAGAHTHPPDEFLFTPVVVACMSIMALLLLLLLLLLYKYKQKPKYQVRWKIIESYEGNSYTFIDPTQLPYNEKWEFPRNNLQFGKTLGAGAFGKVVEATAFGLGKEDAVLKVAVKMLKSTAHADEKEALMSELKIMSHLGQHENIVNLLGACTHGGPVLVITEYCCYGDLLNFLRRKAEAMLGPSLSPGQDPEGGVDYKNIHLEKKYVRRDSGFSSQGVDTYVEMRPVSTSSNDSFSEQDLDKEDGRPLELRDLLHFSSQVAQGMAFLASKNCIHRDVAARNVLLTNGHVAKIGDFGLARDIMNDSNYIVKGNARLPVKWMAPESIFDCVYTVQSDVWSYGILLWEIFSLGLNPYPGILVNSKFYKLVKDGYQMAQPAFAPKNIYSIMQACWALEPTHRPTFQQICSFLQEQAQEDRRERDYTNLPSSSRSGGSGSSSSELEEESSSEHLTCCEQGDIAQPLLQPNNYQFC

In the case of `CCCCCCCC(=O)Nc1nc2[nH]c(CN3CCN(Cc4cccc(F)c4)CC3)c(CN3CCN(Cc4cccc(F)c4)CC3)c2c(=O)[nH]1`, in data set [1], the Tmax (usually the time at which the peak concentration occurs) was 2.25 h. Also, the peak concentration (Cmax) (commonly the highest concentration seen after dosing) in data set [2] was 10 ng/mL. For the same compound, the figures for the half-life in data set [3] and in [7] were 1.66 h and 11.7 h, respectively. In addition, the AUC(0-t) (in general, the area under the concentration-time curve up to a stated or last time point) at 24 h in data set [4] is 56.7 ng·h/mL; in data set [8], 317 ng·h/mL. Besides, the bioavailability – broadly, dose-corrected exposure relative to a reference, in per cent – in data set [5] was found to be 12.3%. In data set [6], the clearance (as a rule, a measure of how efficiently the substance is removed, as volume per time) came to 342 mL/min/kg. Moreover, the inhibition – broadly, how much of the control response was suppressed – is 45.5% in data set [9], 70.3% in [10] and 70.3% in data set [11]. Further, the GI50 (usually the concentration that inhibits growth by half) with A498 (A498) is 1.25 µM. In the data set with A498 (A498), total growth inhibition (TGI) required 2.53 µM. Further, the CC50 with A498 (A498, 48 h, read-out: LC50 (the source's name)) was 5.1 µM. The growth at 0.01 µM with HL-60(TB) [12] came out at 98%. Also, the growth at 0.1 µM with HL-60(TB) [13] was 99%. In addition, in the data set on HL-60(TB) [14], the growth at 1 µM is 96%. In addition, the growth at 100 µM in the data set on HL-60(TB) [15] is -45%.

Consider `Nc1nc2[nH]c(CN3CCN(c4cc(Cl)cc(Cl)c4)CC3)c(CN3CCN(c4cc(Cl)cc(Cl)c4)CC3)c2c(=O)[nH]1`, for which the GI50 in the data set with ACHN [16] came to 1.94 µM. Also, the TGI (as a rule, the concentration at which net growth stops) in the data set on ACHN [16] was found to be 3.9 µM. The growth at 100 µM in the data set on ACHN [17] was -26%; with OVCAR-5 [26] it was -35%; in the data set with SF-539 [27], -55%. In addition, the growth at 1 µM was 98% with ACHN [18]; 91% in the data set with SK-MEL-28 [20]; 114% in the data set on SK-MEL-2 [23]; 89% in the data set on OVCAR-5 [28]; 93% in the data set on SF-539 [29]. In addition, the growth at 0.01 µM with ACHN [19] came to 94%; in the data set on SK-MEL-28 [22] it was 94%; in the data set with SK-MEL-2 [25], 109%; in the data set with OVCAR-5 [32], 87%. Also, the growth at 0.1 µM worked out at 98% in the data set on SK-MEL-28 [21], 115% with SK-MEL-2 [24], 94% in the data set on OVCAR-5 [30] and 94% with SF-539 [31].

Source of the values: ChEMBL document CHEMBL4673219, “Novel 5,6-disubstituted pyrrolo[2,3-d]pyrimidine derivatives as broad spectrum antiproliferative agents: Synthesis, cell based assays, kinase profile and molecular docking study” (Bioorg Med Chem, 2018).
